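Growth conditions: 96-well plates. Treatment: test compound, 48 hours, 5 concentrations. Analysis: linear interpolation between bracketing concentrations; unreached endpoints set to highest concentration. GI50 marks 50% less growth.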 Active and inactive are the calls of the source. Rule as the data show it: active = GI50 up to about 1.1 µM and inactive = higher.
Assays:
Experiment in all cases: growth of human tumour cells (NCI), 48 h
786-0 = test system: 786-0
A498 = test system: A498
A549 = test system: A549
ACHN = test system: ACHN
CAKI-1 = test system: CAKI-1
CCRF-CEM = test system: CCRF-CEM
COLO 205 = test system: COLO 205
DLD-1 = test system: DLD-1
DMS-114 = test system: DMS-114
DMS-273 = test system: DMS-273
EKVX = test system: EKVX
HCC 2998 = test system: HCC 2998
HCT-116 = test system: HCT-116
HCT-15 = test system: HCT-15
HL-60 = test system: HL-60
HOP-62 = test system: HOP-62
HOP-92 = test system: HOP-92
HT-29 = test system: HT-29
IGROV-1 = test system: IGROV-1
K562 = test system: K562
KM-20L2 = test system: KM-20L2
KM12 = test system: KM12
LOX IMVI = test system: LOX IMVI
LXFL 529 = test system: LXFL 529
M14 = test system: M14
M19-MEL = test system: M19-MEL
MOLT-4 = test system: MOLT-4
Malme-3M = test system: Malme-3M
NCI-H226 = test system: NCI-H226
NCI-H23 = test system: NCI-H23
NCI-H460 = test system: NCI-H460
NCI-H522 = test system: NCI-H522
OVCAR-3 = test system: OVCAR-3
OVCAR-4 = test system: OVCAR-4
OVCAR-5 = test system: OVCAR-5
OVCAR-8 = test system: OVCAR-8
RPMI-8226 = test system: RPMI-8226
RXF 393 = test system: RXF 393
RXF 631 = test system: RXF 631
SF-268 = test system: SF-268
SF-295 = test system: SF-295
SF-539 = test system: SF-539
SK-MEL-28 = test system: SK-MEL-28
SK-MEL-2 = test system: SK-MEL-2
SK-MEL-5 = test system: SK-MEL-5
SK-OV-3 = test system: SK-OV-3
SN12C = test system: SN12C
SNB-19 = test system: SNB-19
SNB-75 = test system: SNB-75
SNB-78 = test system: SNB-78
SR = test system: SR
SW-620 = test system: SW-620
TK-10 = test system: TK-10
U-251 = test system: U-251
UACC-257 = test system: UACC-257
UACC-62 = test system: UACC-62
UO-31 = test system: UO-31
XF498 = test system: XF498

## COc1ccc(-c2oc3c(OC)c(OC)c(OC)c(O)c3c(=O)c2OC)cc1O
786-0
  GI50: 0.446 µM (active)
A498
  GI50: 1.6 µM (inactive)
A549
  GI50: 0.36 µM (active)
ACHN
  GI50: 0.0656 µM (active)
CAKI-1
  GI50: 0.557 µM (active)
CCRF-CEM
  GI50: 0.0135 µM (active)
COLO 205
  GI50: 11.1 µM (inactive)
DLD-1
  GI50: 0.432 µM (active)
DMS-114
  GI50: 0.0277 µM (active)
DMS-273
  GI50: < 0.01 µM (active)
EKVX
  GI50: 0.836 µM (active)
HCC 2998
  GI50: 2.11 µM (inactive)
HCT-116
  GI50: 0.0783 µM (active)
HCT-15
  GI50: 0.35 µM
HL-60
  GI50: < 0.01 µM (active)
HOP-62
  GI50: 0.403 µM (active)
HOP-92
  GI50: < 0.01 µM (active)
HT-29
  GI50: 8.87 µM (inactive)
IGROV-1
  GI50: 0.462 µM (active)
K562
  GI50: < 0.01 µM (active)
KM-20L2
  GI50: 12.1 µM (inactive)
KM12
  GI50: 0.556 µM (active)
LOX IMVI
  GI50: 0.0935 µM (active)
LXFL 529
  GI50: 0.0582 µM (active)
M14
  GI50: 0.0592 µM (active)
M19-MEL
  GI50: 0.346 µM (active)
MOLT-4
  GI50: 0.0989 µM (active)
Malme-3M
  GI50: 0.065 µM (active)
NCI-H226
  GI50: 0.0612 µM (active)
NCI-H23
  GI50: 0.254 µM (active)
NCI-H460
  GI50: 0.126 µM (active)
NCI-H522
  GI50: < 0.01 µM (active)
OVCAR-3
  GI50: 0.0632 µM (active)
OVCAR-4
  GI50: 9.23 µM (inactive)
OVCAR-5
  GI50: 5.4 µM (inactive)
OVCAR-8
  GI50: 0.341 µM (active)
RPMI-8226
  GI50: 0.121 µM (active)
RXF 393
  GI50: 0.0559 µM (active)
RXF 631
  GI50: 6.07 µM (inactive)
SF-268
  GI50: 0.0859 µM (active)
SF-295
  GI50: 0.478 µM (active)
SF-539
  GI50: 0.0327 µM (active)
SK-MEL-28
  GI50: < 0.01 µM (active)
SK-MEL-2
  GI50: 0.0546 µM (active)
SK-MEL-5
  GI50: 0.113 µM (active)
SK-OV-3
  GI50: 0.139 µM (active)
SN12C
  GI50: 0.0641 µM (active)
SNB-19
  GI50: 0.347 µM (active)
SNB-75
  GI50: 0.0443 µM (active)
SNB-78
  GI50: 0.0735 µM (active)
SR
  GI50: 0.0702 µM (active)
SW-620
  GI50: 0.038 µM (active)
TK-10
  GI50: 2.42 µM (inactive)
U-251
  GI50: 0.242 µM (active)
UACC-257
  GI50: 0.0583 µM (active)
UACC-62
  GI50: 0.0481 µM (active)
UO-31
  GI50: 0.082 µM (active)
XF498
  GI50: 0.279 µM (active)

## CC1(Br)C(=O)NC(=O)N(C2CC(N=[N+]=[N-])C(CO)O2)C1N=[N+]=[N-] (stereo not drawn)
786-0
  GI50: > 100 µM (inactive)
A498
  GI50: > 100 µM (inactive)
A549
  GI50: > 100 µM (inactive)
ACHN
  GI50: > 100 µM (inactive)
CAKI-1
  GI50: 70.8 µM (inactive)
CCRF-CEM
  GI50: 53.1 µM (inactive)
COLO 205
  GI50: > 100 µM (inactive)
DLD-1
  GI50: > 100 µM (inactive)
DMS-114
  GI50: > 100 µM (inactive)
DMS-273
  GI50: > 100 µM (inactive)
EKVX
  GI50: > 100 µM (inactive)
HCC 2998
  GI50: > 100 µM (inactive)
HCT-15
  GI50: > 100 µM
HL-60
  GI50: > 100 µM (inactive)
HOP-62
  GI50: > 100 µM (inactive)
HOP-92
  GI50: > 100 µM (inactive)
HT-29
  GI50: > 100 µM (inactive)
IGROV-1
  GI50: > 100 µM (inactive)
K562
  GI50: > 100 µM (inactive)
KM-20L2
  GI50: > 100 µM (inactive)
KM12
  GI50: > 100 µM (inactive)
LOX IMVI
  GI50: > 100 µM (inactive)
LXFL 529
  GI50: > 100 µM (inactive)
M14
  GI50: > 100 µM (inactive)
M19-MEL
  GI50: > 100 µM (inactive)
MOLT-4
  GI50: > 100 µM (inactive)
Malme-3M
  GI50: 97.9 µM (inactive)
NCI-H23
  GI50: > 100 µM (inactive)
NCI-H460
  GI50: > 100 µM (inactive)
NCI-H522
  GI50: 23.1 µM (inactive)
OVCAR-3
  GI50: > 100 µM (inactive)
OVCAR-4
  GI50: > 100 µM (inactive)
OVCAR-5
  GI50: > 100 µM (inactive)
OVCAR-8
  GI50: > 100 µM (inactive)
RPMI-8226
  GI50: 92.5 µM (inactive)
RXF 393
  GI50: 91.8 µM (inactive)
RXF 631
  GI50: > 100 µM (inactive)
SF-268
  GI50: > 100 µM (inactive)
SF-295
  GI50: > 100 µM (inactive)
SF-539
  GI50: > 100 µM (inactive)
SK-MEL-28
  GI50: > 100 µM (inactive)
SK-MEL-2
  GI50: > 100 µM (inactive)
SK-MEL-5
  GI50: > 100 µM (inactive)
SK-OV-3
  GI50: > 100 µM (inactive)
SN12C
  GI50: > 100 µM (inactive)
SNB-19
  GI50: > 100 µM (inactive)
SNB-75
  GI50: > 100 µM (inactive)
SNB-78
  GI50: > 100 µM (inactive)
SW-620
  GI50: > 100 µM (inactive)
TK-10
  GI50: > 100 µM (inactive)
U-251
  GI50: > 100 µM (inactive)
UACC-257
  GI50: > 100 µM (inactive)
UACC-62
  GI50: > 100 µM (inactive)
UO-31
  GI50: > 100 µM (inactive)
XF498
  GI50: > 100 µM (inactive)

From ChEMBL document CHEMBL1201862, “PubChem BioAssay data set” (2004)
